Experimental data reported in patent publication US20140235445A1, “PESTICIDE COMPOSITIONS INCLUDING POLYMERIC ADJUVANTS” (priority 2009, published 2014).

Test system: fire ants
Test: fire ant kill test: time to death of all fire ants in a jar coated with dried insecticide composition
Type: in vivo
Protocol: In this example a series of commercially available insecticides were tested at various dilution levels and with and without a preferred copolymer, namely the AVAIL® copolymer previously described (a 40%-60% w/w aqueous composition of a saturated sodium salt of a maleic anhydride/itaconic acid copolymer in water). In each set of test runs, the selected insecticide was tested with a population of fire ants in order to determine the time required to kill the entire population.
In particular, in each test run 20 ml of the respective liquid insecticide composition was added to a mason jar and swirled around the inside bottom thereof. The liquid was then poured off and the remainder was allowed to dry on the inner jar surface, creating substantially a monomeric dried layer. The outside neck surface of the jar was then coated in talc, and the open end of the jar was placed into a fire ant nest. The talc coating prevented the aggressive fire ants from climbing the outer surface of the jar. A population of fire ants was thus established in each jar, and the jar was then topped with an apertured mason jar cap. The time to death of all of the fire ants was then recorded.
In each case, the recommended concentration of insecticide was prepared (recorded as “1×”), followed by dilutions with water to create the diluted compositions. Where copolymer was used, the copolymer was added to the insecticide with gentle mixing, at a level of 30 ml per gallon. If desired, lesser amounts of copolymer could be used, e.g., 20 ml per gallon.
In another series of tests, insecticides were tested with various copolymers having different ratios of maleic anhydride and itaconic acid moieties, and at different pH levels. In particular, respective copolymeric compositions were prepared made up ofpolymaleic acid, a 1:3 weight ratio of maleic anhydride to itaconic acid, a 1:1 weight ratio of maleic anhydride to itaconic acid, a 3:1 weight ratio of maleic anhydride to itaconic acid, and a 7:1 weight ratio of maleic anhydride to itaconic acid. Individual portions of each of these copolymers were then pH-modified using sodium hydroxide to provide, for each copolymer, portions with no pH adjustment, and with adjustment to pHs of 6, 7, and 8. These pH-modified test copolymers were then mixed with a 1/100× dilution of malathion at a level of 30 ml of copolymer per gallon of insecticide. Similarly, the same pH-adjusted copolymers were mixed with 1/20× water dilutions of permethrin, again at a level of 30 ml of copolymer per gallon of insecticide.
The test products were then used in the same fire ant kill experiment of Example 1, giving the data of Tables 2 and 3.

[1] = Table 1, insecticide at 1/10X dilution
[2] = Table 1, insecticide at 1/20X dilution, copolymer, where used, 30 ml per gallon
[3] = Table 1, insecticide at 1X (recommended concentration), time to kill entire fire ant population

Compound	TIME TO DEATH [1]	TIME TO DEATH [2]	TIME TO DEATH (Table 1, insecticide at 1/100X dilution, copolymer, where used, 30 ml per gallon)	TIME TO DEATH [3]	TIME TO DEATH (Table 2, 1/100X malathion, copolymer 30 ml per gallon, no pH adjustment (pH —))	effect of the copolymer on kill time as compared with the insecticide itself (insecticide with copolymer vs insecticide alone)	TIME TO DEATH (Table 1, insecticide at ⅓X dilution)
CCOC(=O)CC(SP(=S)(OC)OC)C(=O)OCC (centres unmarked) [malathion, 2-(dimethoxyphosphinothioylthio) butanedioic acid diethyl ester]	2 min	5 min	30 min	1 min	14 min	–	–
CCOP(=S)(OCC)Oc1cc(C)nc(C(C)C)n1 [Diazinon®]	–	–	–	–	–	no decrease in kill times	–
Cc1c(COC(=O)[C@H]2[C@@H](/C=C(\Cl)C(F)(F)F)C2(C)C)cccc1-c1ccccc1 (stereo in doubt) [bifenthrin, (2-methyl-3-phenylphenyl) methyl (1S,3S)-3-[(Z)-2-chloro-3,3,3-trifluoroprop-1-enyl]-2,2-dimethylcyclopropane-1-carboxylate]	–	15 min	–	–	–	–	–
CC1(C)C(C=C(Cl)Cl)C1C(=O)OCc1cccc(Oc2ccccc2)c1 (centres unmarked) [permethrin, (3-phenoxyphenyl) methyl 3-(2,2-dichloroethenyl)-2,2-dimethyl-cyclopropane-1-carboxylate]	5 min	20 min	–	5 min	–	–	5 min
